Test results reported in ChEMBL document CHEMBL3639203, “Macrocyclic indoles as hepatitis C virus inhibitors” (2013).

Biological target: Genome polyprotein (Hepatitis C virus genotype 1b (strain HC-J4) (HCV), UniProt O92972)
Test: Inhibition Assay: Inhibition assay using HCV NS5B.

Genome polyprotein, sequence (O92972 2420-3010 limits assumed): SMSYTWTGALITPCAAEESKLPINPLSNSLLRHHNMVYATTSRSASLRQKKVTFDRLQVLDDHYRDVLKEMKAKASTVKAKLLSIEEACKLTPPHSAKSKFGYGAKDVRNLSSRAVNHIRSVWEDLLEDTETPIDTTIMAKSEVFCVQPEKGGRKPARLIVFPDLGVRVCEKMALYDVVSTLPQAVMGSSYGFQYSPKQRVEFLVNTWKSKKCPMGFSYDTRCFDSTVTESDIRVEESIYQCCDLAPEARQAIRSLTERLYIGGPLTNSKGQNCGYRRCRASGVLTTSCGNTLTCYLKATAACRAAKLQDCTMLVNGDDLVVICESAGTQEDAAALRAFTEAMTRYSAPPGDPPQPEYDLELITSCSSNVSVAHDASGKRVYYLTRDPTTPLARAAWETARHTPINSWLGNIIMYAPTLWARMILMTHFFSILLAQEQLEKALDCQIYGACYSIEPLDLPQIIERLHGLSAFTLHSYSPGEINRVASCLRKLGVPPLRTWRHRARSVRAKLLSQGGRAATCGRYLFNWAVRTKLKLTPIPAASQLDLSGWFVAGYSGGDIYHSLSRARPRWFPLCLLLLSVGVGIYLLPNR

In the case of `CN1C/C=C\CCNC(=O)Cn2c(-c3ccc(Cl)cc3)c(C3CCCCC3)c3ccc(cc32)C(=O)NS1(=O)=O`, the IC50 is reported as 170 nM.
